Experimental data as given in patent publication US9163032B2, “Esters of DCPLA and methods of treatment using the same” (Blanchette Rockefeller Neurosciences Institute, priority 2011, dated 2015).

Target: T1, PKC-ε (Homo sapiens, UniProt Q02156)
T1 sequence (Q02156 1-737): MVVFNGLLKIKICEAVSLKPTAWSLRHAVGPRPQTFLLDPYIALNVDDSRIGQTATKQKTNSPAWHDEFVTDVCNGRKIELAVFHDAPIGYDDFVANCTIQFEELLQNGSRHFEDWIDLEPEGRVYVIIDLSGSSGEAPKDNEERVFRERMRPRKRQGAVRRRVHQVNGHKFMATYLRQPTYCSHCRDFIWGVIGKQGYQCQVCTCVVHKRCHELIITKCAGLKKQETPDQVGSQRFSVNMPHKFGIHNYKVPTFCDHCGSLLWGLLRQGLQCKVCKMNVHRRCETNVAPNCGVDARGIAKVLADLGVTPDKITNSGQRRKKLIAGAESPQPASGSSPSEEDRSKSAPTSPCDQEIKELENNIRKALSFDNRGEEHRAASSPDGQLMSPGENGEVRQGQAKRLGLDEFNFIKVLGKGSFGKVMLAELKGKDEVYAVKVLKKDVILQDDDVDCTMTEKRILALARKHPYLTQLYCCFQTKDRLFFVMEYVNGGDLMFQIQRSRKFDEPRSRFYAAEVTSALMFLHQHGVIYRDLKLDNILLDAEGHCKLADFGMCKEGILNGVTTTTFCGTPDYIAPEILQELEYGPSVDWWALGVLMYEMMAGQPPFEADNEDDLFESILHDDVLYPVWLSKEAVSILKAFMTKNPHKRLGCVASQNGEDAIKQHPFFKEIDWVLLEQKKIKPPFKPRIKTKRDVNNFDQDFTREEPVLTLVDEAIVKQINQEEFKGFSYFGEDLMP
Test: PKC activation assay with purified PKC-ε isozyme (32P-phosphoprotein formation)
Format: biochemical
Experimental: For measurement of PKC activation by DCPLA-ME, activation of recombinant PKC-α, PKC-ε, and PKC-δ was evaluated. DCPLA-ME induced activation was measured in the absence of diacylglycerol (DAG) and phosphatidylserine (PS) as described earlier. See Nelson, T. J. et al., J. Biol. Chem., 2009, 284: 34514-34521, and Kanno, T. et al., J. Cell Physiol., 2009, 221: 183-188. Individual enzymes were incubated for 15 min at 37° C. in the presence of 10 μM histones, 4.89 mM CaCl2, 10 mM MgCl2, 20 mM HEPES (pH 7.4), 0.8 mM EDTA, 4 mM EGTA, 4% glycerol, 8 μg/ml aprotinin, 8 μg/ml leupeptin, 2 mM benzamidine, and 0.5 μCi of [γ-^32P]ATP. Purified PKC-α, PKC-ε and PKC-δ were preincubated with DCPLA-ME for 5 min at room temperature. [^32P]-Phosphoprotein formation was measured by adsorption onto phosphocellulose.
To measure PKC, 10 μl of cell homogenate or purified PKC isozyme was incubated for 15 min at 37° C. in the presence of 10 μM histones, 4.89 mM CaCl2, 1.2 μg/μl phosphatidyl-L-serine, 0.18 μg/μl 1,2-dioctanoyl-sn-glycerol, 10 mM MgCl2, 20 mM HEPES (pH 7.4), 0.8 mM EDTA, 4 mM EGTA, 4% glycerol, 8 μg/ml aprotinin, 8 μg/ml leupeptin, and 2 mM benzamidine. [γ32P]ATP (0.5 μCi) was added and 32P-phosphoprotein formation was measured by adsorption onto phosphocellulose as described previously. See Nelson et al., J. Neurochemistry, 1995, 65: 2350-2357.
PKC activity of each compound was measured in the absence of diacylglycerol and phosphatidyl-L-serine and PKC-δ and PKC-ε were measured in the absence of added EGTA and CaCl2, as described by Kanno et al., J. Lipid Res., 2006, 47: 1146-1156. Low concentrations of Ca^2+ are needed because high Ca^2+ interacts with the PKC phosphatidylserine binding site and prevents activation. […] To determine their PKC isozyme specificity, the compounds were pre-incubated with purified isoforms of PKC for five minutes and the PKC activity was measured radiometrically.
The activation and PKC isozyme specificity of DCPLA-ethyl ester was measured following the procedures in Example 1(B) and (C), except that 9 ng of the purified isozyme was used and it was pre-incubated for 5 minutes at room temperature (FIG. 3). PKC-ε activation by DCPLA-tert-butyl ester and DCPLA-retinyl ester was measured in the same manner as DCPLA-ethyl ester (FIG. 3).
The EC50 values, PKC specificity, and activation for a select number of DCPLA esters was determined (see Table 1). EC50 values were determined by measuring the lowest concentration that activates by 50% of maximum activation. […] The specificity and activation of PKC by the various esters of DCPLA were determined from the measurements of activation of PKC isozymes.

- Emax (% of control of PKCε at maximum): 195%
- Specificity ε/α (Activation of PKC-ε ÷ activation or inhibition of PKCα at 3xEC50): 12.1
- PKC isozyme specificity (PKC-ε vs PKC-α and PKC-δ): relatively specific for PKC-ε
- PKC-ε activation (in a range of 0.01-10 μM): more than 50%
- EC50 (lowest concentration that activates by 50% of maximum activation): 3 nM
- PKC-ε activation at its peak (maximum, FIG. 1, 2, 4): up to 190 % of control
SMILES: CCCCCC1CC1CC1CC1CCCCCCCC(=O)OC (stereo not drawn) [DCPLA-ME, DCPLA methyl ester]
